Experimental data published in PubChem BioAssay (NCI).
“And” between values parts separate entries of the source, which are not always exact repeats. Equal values may be shown once.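 Method: 48-hour compound exposure of cells in 96-well plates, five concentrations, linear interpolation of endpoints. TGI marks complete inhibition of growth.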

How the values were obtained:
Assay in all cases: NCI tumour cell line growth inhibition, 48 h
HS 578T breast = test system: HS 578T breast
BT-549 breast = test system: BT-549 breast
786-0 renal = test system: 786-0 renal
MCF7 breast = test system: MCF7 breast
SN12K1 renal = test system: SN12K1 renal
P388 leukemia = test system: P388 leukemia
A498 renal = test system: A498 renal
KM20L2 colon = test system: KM20L2 colon
P388/ADR leukemia = test system: P388/ADR leukemia
SNB-78 CNS = test system: SNB-78 CNS
DMS 273 small cell lung = test system: DMS 273 small cell lung
LXFL 529 NSCLC = test system: LXFL 529 NSCLC
XF 498 CNS = test system: XF 498 CNS
RXF-631 renal = test system: RXF-631 renal
HOP-18 NSCLC = test system: HOP-18 NSCLC

SMILES: N#Cc1c(-c2cccc(Br)c2)cc(-c2ccc(Cl)cc2)nc1N
- TGI (HS 578T breast): 43.1 µM
- TGI (BT-549 breast): 99.3 µM
- TGI (786-0 renal): 42.4 µM
- TGI (MCF7 breast): > 100 µM

SMILES: COc1cccc(N2C(=O)CSC2c2c[nH]c3ccccc23)c1 (configuration not stated)
- TGI (BT-549 breast): > 100 µM
- TGI (MCF7 breast): > 100 µM

SMILES: COC(=O)C1C(O)C(C)C(O)C(C)/C=C\C=C(C)C(=O)Nc2c(C)c(OC(C)=O)c3c(c2O)C(=O)C(C)=C2OCOC(=C23)C(C)=CC(C)(O)C(O)C(C)C1O (configuration not stated)
- TGI (HS 578T breast): > 100 µM
- TGI (SN12K1 renal): > 63.3 µM
- TGI (P388 leukemia): 47.1 µM
- TGI (A498 renal): > 75 µM
- TGI (BT-549 breast): > 100 µM
- TGI (786-0 renal): > 100 µM
- TGI (KM20L2 colon): > 72.8 µM
- TGI (P388/ADR leukemia): > 58.5 µM
- TGI (SNB-78 CNS): > 75 µM
- TGI (MCF7 breast): 51.1 µM and > 100 µM
- TGI (DMS 273 small cell lung): > 75 µM

SMILES: O=S(=O)(O)c1ccc(N=Nc2c(O)ccc3ccccc23)cc1
- TGI (HS 578T breast): > 100 µM
- TGI (A498 renal): > 100 µM
- TGI (BT-549 breast): > 100 µM
- TGI (786-0 renal): > 100 µM
- TGI (MCF7 breast): > 100 µM

SMILES: O=c1cnn(C/C=C/CP(=O)(O)O)c(=O)[nH]1
- TGI (HS 578T breast): > 100 µM
- TGI (A498 renal): > 100 µM
- TGI (BT-549 breast): > 100 µM
- TGI (MCF7 breast): > 100 µM

SMILES: CC[N+](C)(C)c1ccc(C(=C2C=CC(=[N+](C)C)C=C2)c2ccc(N(C)C)cc2)cc1
- TGI (LXFL 529 NSCLC): 34.1 µM
- TGI (A498 renal): 48.4 µM
- TGI (786-0 renal): 29 µM
- TGI (XF 498 CNS): 33.2 µM
- TGI (RXF-631 renal): 38.4 µM
- TGI (HOP-18 NSCLC): > 100 µM
- TGI (DMS 273 small cell lung): 25.6 µM

SMILES: COc1cc2c(cc1C)NC(=O)/C2=C\c1cccnc1
- TGI (HS 578T breast): 96.6 µM
- TGI (A498 renal): 26.1 µM
- TGI (BT-549 breast): 96.9 µM
- TGI (786-0 renal): > 100 µM
- TGI (MCF7 breast): 47.8 µM

SMILES: O=S(=O)(O)c1cc(S(=O)(=O)O)c2c(N=Nc3ccccc3)c(O)ccc2c1
- TGI (HS 578T breast): > 100 µM
- TGI (A498 renal): > 100 µM
- TGI (BT-549 breast): > 100 µM
- TGI (786-0 renal): > 100 µM

SMILES: CC(C)OP(=O)(OC(C)C)c1nn(-c2ccc([N+](=O)[O-])cc2)c(=N)s1
- TGI (A498 renal): > 100 µM
- TGI (KM20L2 colon): > 100 µM
- TGI (XF 498 CNS): > 100 µM

SMILES: COc1cccc2c1C(=O)c1c(O)c3c(c(O)c1C2=O)CC(O)(C(C)=O)CC3OC1CC([N+](C)(C)C)C(O)C(C)O1 (configuration not stated)
- TGI (LXFL 529 NSCLC): > 100 µM
- TGI (A498 renal): > 100 µM
- TGI (786-0 renal): > 100 µM
- TGI (KM20L2 colon): > 100 µM
- TGI (XF 498 CNS): 92.2 µM
- TGI (SNB-78 CNS): > 100 µM
- TGI (RXF-631 renal): > 100 µM
- TGI (HOP-18 NSCLC): > 100 µM
- TGI (DMS 273 small cell lung): > 100 µM

SMILES: CC1=CC(=C(c2ccc(N)c(C)c2)c2ccc(N)c(C)c2)C=CC1=N
- TGI (LXFL 529 NSCLC): 15 µM
- TGI (A498 renal): > 100 µM
- TGI (786-0 renal): 21.1 µM
- TGI (KM20L2 colon): 14.5 µM
- TGI (XF 498 CNS): 11.7 µM
- TGI (SNB-78 CNS): 23.4 µM
- TGI (DMS 273 small cell lung): 10.8 µM

SMILES: OC12c3ccccc3C1CCCCCCCCCC21OCCCO1 (configuration not stated)
- TGI (LXFL 529 NSCLC): > 100 µM
- TGI (XF 498 CNS): > 100 µM
- TGI (SNB-78 CNS): > 100 µM
- TGI (HOP-18 NSCLC): > 100 µM
- TGI (DMS 273 small cell lung): > 100 µM

SMILES: O=S(=O)(O)c1cccc2ccc(O)c(N=Nc3ccc(S(=O)(=O)c4ccc(N=Nc5c(O)ccc6cccc(S(=O)(=O)O)c56)cc4)cc3)c12
- TGI (HS 578T breast): > 100 µM
- TGI (BT-549 breast): > 100 µM
- TGI (786-0 renal): > 100 µM

SMILES: COC1C(=[N+]=[N-])C(=O)NC(=O)N1C1OC(COC(c2ccccc2)(c2ccccc2)c2ccccc2)C(O)C1O (configuration not stated)
- TGI (LXFL 529 NSCLC): 32.1 µM
- TGI (A498 renal): 35.4 µM
- TGI (KM20L2 colon): 31.1 µM
- TGI (SNB-78 CNS): 45.6 µM
- TGI (HOP-18 NSCLC): 37.5 µM

SMILES: CCC(C)C1=C(O)[N+]2([O-])Oc3ccc(-c4c(O)c(O)c(-c5ccc(O)cc5)c(OC(C)=O)c4OC(C)=O)cc3OC2(C(C)CC)C(=O)N1O (configuration not stated)
- TGI (A498 renal): > 50 µM
- TGI (786-0 renal): > 50 µM
- TGI (MCF7 breast): > 50 µM
